Reference: paper PMC7549094 (Journal of Medicinal Chemistry, 2020)

Experiments:
Assay in all cases: receptor profile (Table S4)
hr Alpha2B = target: T1, hr Alpha2B (Homo sapiens, UniProt P18089); type: binding
T1 sequence (P18089 1-450): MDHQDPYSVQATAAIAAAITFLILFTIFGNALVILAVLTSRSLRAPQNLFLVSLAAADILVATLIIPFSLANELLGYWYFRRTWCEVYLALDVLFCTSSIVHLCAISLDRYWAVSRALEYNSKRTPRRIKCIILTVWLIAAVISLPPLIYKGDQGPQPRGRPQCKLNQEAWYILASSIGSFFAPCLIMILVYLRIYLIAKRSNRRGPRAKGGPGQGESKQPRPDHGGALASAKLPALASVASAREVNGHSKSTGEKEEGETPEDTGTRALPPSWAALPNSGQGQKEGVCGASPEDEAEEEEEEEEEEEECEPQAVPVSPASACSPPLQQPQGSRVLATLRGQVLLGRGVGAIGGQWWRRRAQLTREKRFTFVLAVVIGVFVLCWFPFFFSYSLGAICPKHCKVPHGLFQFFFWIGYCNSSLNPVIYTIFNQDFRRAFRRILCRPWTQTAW

hr D1 antag = hr D1 antag (Homo sapiens, UniProt P21728); type: biochemical
hr PR ag = target: T2, hr PR ag (Homo sapiens, UniProt P06401); type: biochemical
T2 sequence (P06401 1-933): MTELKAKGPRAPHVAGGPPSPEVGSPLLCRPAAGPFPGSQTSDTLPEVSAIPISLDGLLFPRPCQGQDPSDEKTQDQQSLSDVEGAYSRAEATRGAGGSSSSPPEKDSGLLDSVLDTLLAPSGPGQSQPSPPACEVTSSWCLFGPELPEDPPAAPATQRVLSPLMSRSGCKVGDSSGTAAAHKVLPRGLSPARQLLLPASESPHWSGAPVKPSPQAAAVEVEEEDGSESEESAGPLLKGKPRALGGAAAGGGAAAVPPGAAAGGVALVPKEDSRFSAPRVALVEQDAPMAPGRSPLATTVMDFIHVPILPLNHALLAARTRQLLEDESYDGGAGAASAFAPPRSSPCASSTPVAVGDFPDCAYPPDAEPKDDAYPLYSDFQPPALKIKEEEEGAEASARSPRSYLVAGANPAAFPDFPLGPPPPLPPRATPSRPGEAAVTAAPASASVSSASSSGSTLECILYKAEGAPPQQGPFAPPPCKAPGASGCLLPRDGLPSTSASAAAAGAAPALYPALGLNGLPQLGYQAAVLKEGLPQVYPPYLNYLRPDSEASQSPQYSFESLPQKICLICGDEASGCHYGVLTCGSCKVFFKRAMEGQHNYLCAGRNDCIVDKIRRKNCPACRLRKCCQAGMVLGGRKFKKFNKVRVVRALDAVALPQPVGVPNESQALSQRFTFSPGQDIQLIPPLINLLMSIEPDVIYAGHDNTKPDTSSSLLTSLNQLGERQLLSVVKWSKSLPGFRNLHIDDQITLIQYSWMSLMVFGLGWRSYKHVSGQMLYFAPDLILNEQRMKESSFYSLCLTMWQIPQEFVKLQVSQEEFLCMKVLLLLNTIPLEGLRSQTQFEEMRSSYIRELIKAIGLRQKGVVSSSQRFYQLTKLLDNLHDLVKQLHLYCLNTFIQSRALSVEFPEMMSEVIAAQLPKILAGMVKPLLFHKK

hr PR antag = target: T3, hr PR antag (Homo sapiens, UniProt P06401); type: biochemical
T3 sequence (P06401 1-933): T2 sequence (P06401 1-933)

hr ETa = target: T4, hr ETa (Homo sapiens, UniProt P25101); type: binding
T4 sequence (P25101 21-427): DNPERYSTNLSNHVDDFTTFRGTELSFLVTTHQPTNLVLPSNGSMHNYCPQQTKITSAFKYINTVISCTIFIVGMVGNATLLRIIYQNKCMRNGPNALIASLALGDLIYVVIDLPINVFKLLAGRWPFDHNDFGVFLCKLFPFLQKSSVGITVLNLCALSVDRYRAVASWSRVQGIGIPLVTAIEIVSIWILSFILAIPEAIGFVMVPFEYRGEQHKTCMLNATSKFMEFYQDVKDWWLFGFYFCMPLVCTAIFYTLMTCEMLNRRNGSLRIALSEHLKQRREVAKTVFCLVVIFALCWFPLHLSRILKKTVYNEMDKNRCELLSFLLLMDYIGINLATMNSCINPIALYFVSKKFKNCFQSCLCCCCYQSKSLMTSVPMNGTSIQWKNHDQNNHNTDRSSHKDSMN

hr D3 = hr D3 (Homo sapiens, UniProt P35462); type: binding
hr Cav1.2 = hr Cav1.2 (Homo sapiens, UniProt Q13936); settings: hr Cav1.2
Cav1.2 = Cav1.2 (Homo sapiens, UniProt Q13936); settings: human
hr ERa antag = hr ERa antag (Homo sapiens, UniProt P03372); type: biochemical
hr ERa antag, sequence (P03372 whole entry): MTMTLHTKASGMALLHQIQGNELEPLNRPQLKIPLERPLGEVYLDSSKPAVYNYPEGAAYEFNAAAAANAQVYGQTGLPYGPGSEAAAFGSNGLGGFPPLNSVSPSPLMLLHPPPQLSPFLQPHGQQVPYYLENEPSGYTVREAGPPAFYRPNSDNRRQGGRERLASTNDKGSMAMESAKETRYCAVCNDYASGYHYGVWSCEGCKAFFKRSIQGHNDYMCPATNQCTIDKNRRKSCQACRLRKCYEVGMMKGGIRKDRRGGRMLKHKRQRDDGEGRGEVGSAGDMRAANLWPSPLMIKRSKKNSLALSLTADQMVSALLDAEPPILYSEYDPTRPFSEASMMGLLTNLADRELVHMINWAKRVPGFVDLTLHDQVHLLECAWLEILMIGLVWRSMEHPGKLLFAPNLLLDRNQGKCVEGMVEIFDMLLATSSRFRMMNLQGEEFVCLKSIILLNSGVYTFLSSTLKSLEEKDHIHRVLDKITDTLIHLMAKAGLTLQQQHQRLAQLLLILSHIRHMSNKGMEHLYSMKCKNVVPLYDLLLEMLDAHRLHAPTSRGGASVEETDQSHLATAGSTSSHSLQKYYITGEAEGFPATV

hr D1 antag, sequence (P21728 whole entry): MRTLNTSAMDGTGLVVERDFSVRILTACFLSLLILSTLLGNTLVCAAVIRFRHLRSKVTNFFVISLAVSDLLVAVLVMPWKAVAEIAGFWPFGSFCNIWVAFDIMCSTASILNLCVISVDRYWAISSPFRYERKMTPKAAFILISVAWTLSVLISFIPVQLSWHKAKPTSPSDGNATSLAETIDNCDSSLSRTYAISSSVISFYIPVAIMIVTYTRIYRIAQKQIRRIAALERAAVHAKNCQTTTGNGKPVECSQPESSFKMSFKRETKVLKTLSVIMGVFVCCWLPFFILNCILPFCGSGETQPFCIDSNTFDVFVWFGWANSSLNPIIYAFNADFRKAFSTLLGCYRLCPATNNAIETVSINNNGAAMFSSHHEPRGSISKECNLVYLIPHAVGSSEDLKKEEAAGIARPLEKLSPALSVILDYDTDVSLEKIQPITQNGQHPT
hr D3, sequence (P35462 whole entry): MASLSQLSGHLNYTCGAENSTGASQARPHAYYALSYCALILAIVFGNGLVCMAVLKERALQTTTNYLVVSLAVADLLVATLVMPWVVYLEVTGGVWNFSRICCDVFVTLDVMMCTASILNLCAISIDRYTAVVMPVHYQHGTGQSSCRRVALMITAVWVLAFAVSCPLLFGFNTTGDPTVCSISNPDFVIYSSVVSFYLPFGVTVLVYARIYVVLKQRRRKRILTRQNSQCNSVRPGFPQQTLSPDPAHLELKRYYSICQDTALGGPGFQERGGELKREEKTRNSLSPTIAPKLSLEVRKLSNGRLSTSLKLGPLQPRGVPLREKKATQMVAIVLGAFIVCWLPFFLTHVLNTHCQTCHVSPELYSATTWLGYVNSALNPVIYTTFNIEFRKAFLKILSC

Cc1nc(C)c(C(=O)Nc2ccc(F)c(-c3nc4ncc(-c5ncccc5C)cn4n3)c2)o1 [compound 1, N-(4-Fluoro-3-(6-(3-methylpyridin-2-yl)-[1,2,4]triazolo[1,5-a]pyrimidin-2-yl)phenyl)-2,4-dimethyloxazole-5-carboxamide]
EC50/IC50 (hr Alpha2B; hr Alpha2B): > 30 µM
inhibition at 10 µM (hr Alpha2B; read-out: % inh/act @ 10 µM): 13%
inhibition at 30 µM (hr Alpha2B; read-out: % inh/act @ 30 µM): 16%
EC50/IC50 (hr D1 antag; hr D1 antag): > 30 µM
inhibition at 10 µM (hr D1 antag; read-out: % inh/act @ 10 µM): -11%
inhibition at 30 µM (hr D1 antag; read-out: % inh/act @ 30 µM): -5%
EC50/IC50 (hr PR ag; hr PR ag): > 30 µM
inhibition at 10 µM (hr PR ag; read-out: % inh/act @ 10 µM): -2%
inhibition at 30 µM (hr PR ag; read-out: % inh/act @ 30 µM): 0%
EC50/IC50 (hr PR antag; hr PR antag): > 30 µM
inhibition at 10 µM (hr PR antag; read-out: % inh/act @ 10 µM): -11%
inhibition at 30 µM (hr PR antag; read-out: % inh/act @ 30 µM): -5%
EC50/IC50 (hr ETa; hr ETa): > 30 µM
inhibition at 10 µM (hr ETa; read-out: % inh/act @ 10 µM): 2%
inhibition at 30 µM (hr ETa; read-out: % inh/act @ 30 µM): 13%
EC50/IC50 (hr D3; hr D3): > 30 µM
inhibition at 10 µM (hr D3; read-out: % inh/act @ 10 µM): 9%
inhibition at 30 µM (hr D3; read-out: % inh/act @ 30 µM): 7%
EC50/IC50 (hr Cav1.2): > 50 µM
inhibition at 10 µM (Cav1.2): -3%
inhibition at 30 µM (Cav1.2): -7%
EC50/IC50 (hr ERa antag; hr ERa antag): > 30 µM
inhibition at 10 µM (hr ERa antag; read-out: % inh/act @ 10 µM): -8%
inhibition at 30 µM (hr ERa antag; read-out: % inh/act @ 30 µM): -4%
